One data set deals with HBVL180M/S202G/M204V. The arrangement: method as in PMID 26122273. The settings on record: entecavir-resistant variant; cited from earlier work.
Another data set concerns wild-type HBV. The arrangement: method as in PMID 26122273. Particulars: cited from earlier work.
The next data set has as its system HBVA181T/N236T. The arrangement: method as in PMID 26122273. Particulars: adefovir dipivoxil-resistant variant; cited from earlier work.
Data set [1] is described as follows: Pharmacokinetic study of oral co-administration of SK14-061a and ETV in rats. Type of data set: in vivo. How it is done: At stipulated times after the administration (15 min, 45 min, 90 min, 3, 6 and 9 hr), venous blood samples were collected by means of a heparinized syringe (0.25ml). The blood samples were centrifuged (3,000 rpm, 10 min) to obtain plasma. […] All data are expressed as the mean ± S.D. Statistical analyses for multiple comparisons were determined by an analysis of variance (two-way ANOVA) using the Bonferroni correction for multiple comparisons. A probability value of p < 0.05 was considered to be significant. A non-compartment model was used for the pharmacokinetic analysis. Parameters were calculated using the program of a moment analysis developed by Tabata et al. Half-life (t1/2) were calculated from the elimination phase. Area under the concentration-time curve (AUC) were calculated using the following equations: AUC=∫0∞Cdt

The mark [2] stands for this setting: rats, p.o., ETV 1 mg/kg alone (SK14-061a (-)).

Where two headings read alike, the source gives them in different places.

What is called half-life is the time in which the quantity being followed falls by half. The term AUC denotes concentration integrated over time. The term Cmax denotes the highest concentration seen after dosing. Broadly, the MRT is a mean duration of stay, worked out from the concentration-time curve. For orientation: Tmax means the time at which the peak concentration occurs.

As to `N#C[C@]1(CO)O[C@@H](n2cnc3c(=O)[nH]c(N)nc32)C[C@@H]1O` [4′-CN-2′-deoxyguanosine], the “activity against HBVL180M/S202G/M204V” value with HBVL180M/S202G/M204V is “highly active”. In the data set with wild-type HBV, the “activity against wild-type HBV” value was “highly active”. Besides, in the data set with HBVA181T/N236T, the “activity against HBVA181T/N236T” value was “highly active”.

`C=C1[C@H](CO)[C@@H](O)C[C@@H]1n1cnc2c(=O)[nH]c(N)nc21` [ETV, entecavir]: the half-life in data set [1] (rat, plasma, po, 1 mg/kg) is 1.98 ± 0.51 h. Further, the AUC in data set [1] (rat, plasma, po, 1 mg/kg, read-out: AUC) was found to be 492 ± 31.5 ng·h/mL. Further, the CL/F in data set [1] (rat, plasma, po, 1 mg/kg, read-out: CL/F (converted)) is 34 mL/min/kg. Besides, the Cmax in data set [1] (rat, plasma, po, 1 mg/kg, read-out: Cmax) was found to be 135 ± 27.4 ng/mL. The mean residence time MRT in data set [1] (rat, plasma, po, 1 mg/kg, read-out: MRT) came to 3.24 ± 0.68 h. For the same compound, in data set [1] (rat, plasma, po, 1 mg/kg, read-out: tmax), the Tmax turned out to be 1.25 ± 0.43 h. Besides, in data set [1] (setting [2]), the exposure (AUC) is 261 ± 16.2 ng·h/mL, the CL/F came out at 64.2 ± 4.17 mL/min/kg, the maximum concentration (Cmax) is 147 ± 5.82 ng/mL and the MRT stood at 1.35 ± 0.03 h. For the same compound, in data set [1] (setting [2]), the Tmax was determined as 0.75 h and the t1/2 stood at 0.72 ± 0.05 h.

(Values after article PMC5991393, “Pharmacokinetic properties of a novel inosine analog, 4′-cyano-2′-deoxyinosine, after oral administration in rats” (PLoS ONE, 2018).)
